Test results taken from PMC4539253 (Bioorganic & medicinal chemistry letters, 2014).
Marks after values point to notes of the source that are not given here.

Tests used:
Caco-2 = Caco-2 permeability; assay type: in vitro ADME; details: <15 is limit of detection
CCR2 = CCR2 (Homo sapiens, UniProt P41597); test: CCR2 binding
mouse CCR2 = mouse CCR2 (Mus musculus, UniProt P51683); test: Activity versus mouse CCR2
human-CCR2 knock-in mice = test: 6-h thioglycollate; details: mouse, in vivo
wild-type mice = test: TG-induced peritonitis model using wild-type mice; assay type: in vivo, mouse; details: data not shown

Sequence of CCR2 (P41597 whole entry): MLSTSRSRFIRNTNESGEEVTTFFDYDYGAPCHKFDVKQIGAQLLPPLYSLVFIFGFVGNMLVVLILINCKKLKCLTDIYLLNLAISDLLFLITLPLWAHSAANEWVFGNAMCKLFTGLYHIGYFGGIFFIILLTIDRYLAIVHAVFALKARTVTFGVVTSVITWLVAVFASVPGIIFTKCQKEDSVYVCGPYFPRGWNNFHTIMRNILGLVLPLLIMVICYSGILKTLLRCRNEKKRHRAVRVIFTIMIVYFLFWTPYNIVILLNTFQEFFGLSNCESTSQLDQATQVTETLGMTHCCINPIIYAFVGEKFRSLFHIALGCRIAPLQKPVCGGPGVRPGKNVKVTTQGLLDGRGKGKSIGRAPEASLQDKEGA
Sequence of mouse CCR2 (P51683 whole entry): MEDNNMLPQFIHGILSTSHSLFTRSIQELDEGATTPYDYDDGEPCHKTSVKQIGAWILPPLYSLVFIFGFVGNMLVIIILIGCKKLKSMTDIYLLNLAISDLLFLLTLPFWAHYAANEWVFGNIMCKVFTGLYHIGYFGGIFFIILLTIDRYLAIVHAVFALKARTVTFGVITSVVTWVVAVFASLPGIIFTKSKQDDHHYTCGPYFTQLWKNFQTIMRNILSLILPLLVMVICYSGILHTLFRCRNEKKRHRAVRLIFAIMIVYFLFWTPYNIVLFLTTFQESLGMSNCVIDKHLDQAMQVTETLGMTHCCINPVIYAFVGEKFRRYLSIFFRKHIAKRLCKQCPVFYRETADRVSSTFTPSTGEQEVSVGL

Row | Compound | Caco-2 PAP-BL (Caco-2) | activity versus mouse CCR2 (mouse CCR2) | other results
1 | CC(C)N(C)[C@@H]1CC[C@H](N2CC[C@H](NC(=O)c3cccc(C(F)(F)F)c3)C2=O)[C@H](CS(=O)(=O)c2ccccc2)C1 [Compound 1] | <15 ^e nm/s | – | –
2 | CC(C)N(C)[C@@H]1CC[C@H](N2CC[C@H](NC(=O)c3cccc(C(F)(F)F)c3)C2=O)[C@H](CS(C)(=O)=O)C1 [Compound 2] | <15 nm/s | poor activity | loss in CCR2 binding affinity as compared to 1 (CCR2; compared to 1): ~2 fold; inflammatory monocytes (Ly6C+F4/80+) in blood as compared to vehicle (human-CCR2 knock-in mice): significant reduction
3 | CCS(=O)(=O)C[C@@H]1C[C@H](N(C)C(C)C)CC[C@@H]1N1CC[C@H](NC(=O)c2cccc(C(F)(F)F)c2)C1=O [Compound 8] | <15 nm/s | – | IC50 (CCR2): 1.3 ± 0.02 nM
4 | CC(C)N(C)[C@@H]1CC[C@H](N2CC[C@H](NC(=O)c3cccc(C(F)(F)F)c3)C2=O)[C@H](CS(=O)(=O)C(C)C)C1 [Compound 10] | <15 nm/s | – | increase in CCR2 binding affinity as compared to 2 (CCR2; compared to 2): 6 fold
5 | CC(C)N(C)[C@@H]1CC[C@H](N2CC[C@H](NC(=O)c3cccc(C(F)(F)F)c3)C2=O)[C@H](CS(=O)(=O)C(C)(C)C)C1 [Compound 12] | 30 nm/s | poor activity | activity in TG-induced peritonitis model (wild-type mice): did not show any activity
